Values quoted from earlier work as cited in US7312209B2, “Acridone inhibitors of IMPDH enzyme” (Bristol-Myers Squibb Company, priority 2001, dated 2007).

What was measured:
[1] = test system: antigen-specific T lymphocyte responses; details: in combination with Rol 10^−7 M
IMPDH types I and II = details: RT-PCR; low and high concentrations
IL-2, IL-4, and IFN = details: RT-PCR; Rol 10^−7 M, MPA 10^−8 M

SMILES	synergistic effect on inhibition of antigen-induced proliferation [1]	gene expression for IMPDH types I and II (IMPDH types I and II)	downregulation in the generation of proinflammatory cytokines (IL-2, IL-4, IFN) (IL-2, IL-4, and IFN)
C=CC[C@@H]1/C=C(\C)C[C@H](C)C[C@H](OC)[C@H]2O[C@@](O)(C(=O)C(=O)N3CCCC[C@H]3C(=O)O[C@H](/C(C)=C/[C@@H]3CC[C@@H](O)[C@H](OC)C3)[C@H](C)[C@@H](O)CC1=O)[C@H](C)C[C@@H]2OC [tacrolimus]	little or no synergistic effect		
COc1ccc(C2CNC(=O)C2)cc1OC1CCCC1 (stereo not drawn) [Rol, 4-[3-(cyclopentyloxy)-4-methoxy-phenyl]-2-pyrrolidinone]		remained unaffected	no significant downregulation
COc1c(C)c2c(c(O)c1C/C=C(\C)CCC(=O)O)C(=O)OC2 [MPA, mycophenolic acid]	marked synergistic effect	remained unaffected	no significant downregulation
